Results on 11 molecules are retold here after patent publication US10106552B2, “Compounds inhibiting eukaryotic elongation factor 2 kinase activity” (Longevica Pharmaceuticals, Inc., priority 2013, dated 2018).

In series [1] the test system is breast cancer cell line MDA-MB-231. As to the kind of experiment: Potentiation of doxorubicin effect, CellTiter-Glo cell viability. It is filed as cell-based. As for the experimental part:
The potentiation of doxorubicin effect of eEF2K inhibition by Compound 35 in combination with doxorubicin was evaluated. The breast cancer cell line MDA-MB-231 (ATCC No. HTB-26) was incubated with 0.4 μM doxorubicin for 24 hours, with both a negative control (untreated) group and a group receiving only 10 μM Compound 35 but not doxorubicin.
(Cellular ATP, detected with luciferase, serves as a proxy for viable cell number.)

Series [2] concerns rat embryonic myocardium cell line H9C2. As to the kind of experiment: Doxorubicin-induced apoptosis, CellTiter-Glo cell viability. Conditions: for recovery, percent of original density: H9C2, 0.4 μM doxorubicin 24 hours.
Method: The cells were plated into 48-well plates at 0.2×10^5 cells per well and allowed to attach overnight. […] Cell viability was measured on days 1, 2, 3, and 6 using the Promega CellTiter-Glo® Luminescent Cell Viability Assay.
In series [3] the test system is human bone osteosarcoma cancer cell line MG63. Briefly: Cell viability under normal conditions and nutrient deprivation, CellTiter-Glo. It is filed as cell-based. As for the experimental part:
The effect of eEF2K inhibition on the malignant human bone osteosarcoma cancer cell line MG63 (ATCC No. CRL-1427) was evaluated under both normal conditions and during nutrient deprivation. […] One group of cells were grown under normal conditions (advanced MEM/glutamine/10% FBS) and the other group of cells were switched to conditions of nutrient deprivation (HBSS/22 mM HEPES) twenty-four hours after plating. Each group was divided into three subsets: cells receiving no treatment; cells receiving vehicle (DMSO) and cells receiving 10 μM of Compound 35.

Series [4] can be described thus: Pharmacokinetic study, intravenous administration. Conditions: mouse, in vivo, male CD-1 mice, 1 mg/kg.
In series [5] the target is recombinant eEF2K (Homo sapiens (Human), UniProt O00418). As to the kind of experiment: eEF2K Kinase-Glo luminescent kinase assay (ATP consumption, peptide substrate). In kind it is biochemical. Conditions: average of two to four separate experimental measurements, each the average of three replicates. As for the experimental part: The following compounds were synthesized using the general methods described above. In the table below, IC50 values are in μM and are the average of two to four separate experimental measurements, each consisting in turn of the average of three replicates. IC50 values were calculated using the methods as described in Example 2. MW was determined by mass spectroscopy analysis, and is expressed as M+1.
To determine the IC50 of compounds of the invention, recombinant eEF2K was diluted in an assay buffer in the presence of calmodulin, a calcium-binding messenger protein expressed in eukaryotic cells, and incubated with peptide substrate Ac-RKKYKFNEDTERRRFL in the presence of Adenosine-5′-triphosphate (ATP) and the test compound. The peptide substrate is efficiently and specifically phosphorylated by eEF2K at a single substrate concentration of 100 μM. Using this peptide, eEF2K activity can be quantitatively determined using a Kinase-Glo® luminescent kinase assay kit (Promega) that measures ATP consumption by EF2K during phosphorylation of the substrate. ATP conversion was recorded using Perkin-Elmer Victor Luminometer. Data was plotted using GraphPad software and IC50 was calculated using 3-parameter sigmoidal curve fit.

A word on the half-life: it is how long it takes for the measured level to halve. A higher half-life goes with slow loss. The term Cmax denotes the maximum level reached in the sampled fluid or tissue. Usually IC50 stands for the concentration needed to halve the response being measured.

Consider `COc1cccc2c1C(=O)c1c(O)c3c(c(O)c1C2=O)C[C@@](O)(C(=O)CO)C[C@@H]3O[C@H]1C[C@H](N)[C@H](O)[C@H](C)O1` [doxorubicin, reference compound], for which the “percent of viable cells” value in series [1] (MDA-MB-231, 0.4 μM doxorubicin for 24 hours alone, by day 6) was “increased slightly”. In addition, in series [2] (H9C2, after doxorubicin was removed after 24 hours), the “proliferation of remaining viable cells” value was “failed to proliferate”. The molecule further registered a cell death in series [2] (H9C2, control arm, 0.4 μM doxorubicin for 24 hours) of 65%.

On to `CC1(C)CCc2c(nc3sc(C(N)=O)c(N)c3c2-c2cncs2)C1` [Compound 35, 3-Amino-7,7-dimethyl-4-thiazol-5-yl-5,6,7,8-tetrahydro-thieno[2,3-b]quinoline-2-carboxylic acid amide], for which the “percent of viable cells” value in series [1] (MDA-MB-231, 0.4 μM doxorubicin 24 hours plus 10 μM Compound 35 twice daily for 72 hours, days 2, 4 and 6) is recorded as “significant decrease”; in series [1] (MDA-MB-231, 10 μM Compound 35 without doxorubicin, by day 6), “increased substantially”. In series [3] (Homo sapiens, MG-63, 144 h, MG63, nutrient deprivation (HBSS/22 mM HEPES), by day 6, read-out: percent viable cells), the viability at 10 µM is < 10%. In series [3] (MG63, normal conditions (advanced MEM/glutamine/10% FBS), 10 μM), the cell growth result is on record as “significant growth”. In series [2] (0.4 μM doxorubicin 24 hours, 2 μM or 10 μM compound twice daily for 72 hours), the “protection of H9C2 cells from doxorubicin-induced toxicity” value is listed as “robust, dose-dependent protection”. For the same molecule, the “recovery, percent of original density” value in series [2] (2 μM compound, by day 6) worked out at 85%; in series [2] (10 μM compound, by day 2) it was 85%. Also, the half-life in series [4] came to 34 min. The highest level in series [4] (at five minutes) (Cmax) was 356 ng/mL. For the same molecule, in series [5], the concentration for half-maximal inhibition (IC50) was 0.4 µM.

With `CC1(C)CCc2c1nc1sc(C(N)=O)c(N)c1c2-c1ccoc1` [Compound 17, 3-Amino-4-furan-3-yl-7,7-dimethyl-6,7-dihydro-5H-1-thia-8-aza-s-indacene-2-carboxylic acid amide], in series [5], the IC50 came to 1.1 µM.

For `Cn1cc(-c2c3c(nc4sc(C(N)=O)c(N)c24)C(C)(C)CCC3)cn1` [Compound 39, 3-Amino-8,8-dimethyl-4-(1-methyl-1H-pyrazol-4-yl)-5,6,7,8-tetrahydro-thieno[2,3-b]quinoline-2-carboxylic acid amide], the concentration for half-maximal inhibition (IC50) in series [5] came to 1.4 µM.

For the molecule `CC1(C)CCc2nc3sc(C(N)=O)c(N)c3c(-c3ccoc3)c2C1` [Compound 21, 3-Amino-4-furan-3-yl-6,6-dimethyl-5,6,7,8-tetrahydro-thieno[2,3-b]quinoline-2-carboxylic acid amide], in series [5], the IC50 is 2 µM.

On to `CC1(C)CCc2c1nc1sc(C(N)=O)c(N)c1c2-c1ccco1` [Compound 15, 3-Amino-4-furan-2-yl-7,7-dimethyl-6,7-dihydro-5H-1-thia-8-aza-s-indacene-2-carboxylic acid amide], for which, in series [5], the 50% inhibitory concentration (IC50) was 2.5 µM.

Take `CC1CC(C)(C)Cc2nc3sc(C(N)=O)c(N)c3c(-c3ccco3)c21` (stereo not shown) [Compound 16, 3-Amino-4-furan-2-yl-5,7,7-trimethyl-5,6,7,8-tetrahydro-thieno[2,3-b]quinoline-2-carboxylic acid amide]: the half-inhibitory concentration (IC50) in series [5] came out at 4.6 µM.

`Cc1nc(C)c(-c2c3c(nc4sc(C(N)=O)c(N)c24)C(C)(C)CC3)s1` [Compound 41, 3-Amino-4-(2,4-dimethyl-thiazol-5-yl)-7,7-dimethyl-6,7-dihydro-5H-1-thia-8-aza-s-indacene-2-carboxylic acid amide]: the IC50 in series [5] was 0.5 µM.

As for `CC1(C)C/C(=C\c2cccc(Cl)c2F)c2nc3sc(C(N)=O)c(N)c3c(-c3cccc(Cl)c3F)c2C1` [Compound 14, 3-Amino-8-(3-chloro-2-fluoro-benzylidene)-4-(3-chloro-2-fluoro-phenyl)-6,6-dimethyl-5,6,7,8-tetrahydro-thieno[2,3-b]quinoline-2-carboxylic acid amide], in series [5], the concentration for half-maximal inhibition (IC50) is 5020 µM.

Consider `CC1(C)CCc2c1nc1sc(C(N)=O)c(N)c1c2-c1cocn1` [Compound 31, 3-Amino-7,7-dimethyl-4-oxazol-4-yl-6,7-dihydro-5H-1-thia-8-aza-s-indacene-2-carboxylic acid amide], for which the half-inhibitory concentration (IC50) in series [5] turned out to be 3.5 µM.

In the case of `NC(=O)c1sc2nc3c(c(-c4ccc(Cl)o4)c2c1N)CC(c1ccccc1)C/C3=C\c1ccc(Cl)o1` (stereo not shown) [Compound 3, 3-Amino-4-(5-chloro-furan-2-yl)-8-(5-chloro-furan-2-ylmethylene)-6-phenyl-5,6,7,8-tetrahydro-thieno[2,3-b]quinoline-2-carboxylic acid amide], the IC50 in series [5] is 10000 µM.
